Measurements as given in US20200246364A1, “MEDICAL APPLICATION OF COMPOSITION OF FRUCTOSE-1,6-BISPHOSPHATE AND BLOOD CONCENTRATION STABILIZER THEREOF” (ZHEJIANG UNIVERSITY, priority 2017, published 2020).

Columns and labels:
SHG-44 = experiment: Mitochondrial oxidative phosphorylation in glioma cells (ATP/ADP, NADH/NAD+, ATP); type: cell-based, human
U87MG = experiment: 13C-glucose tracing: glycolysis, pentose phosphate, one-carbon and nucleic acid synthesis intermediates (LC-MS/MS); type: cell-based, human; details: 1.6 mM, 36 h
Method: Human glioma cell strain (U87MG) was incubated in a medium containing ^13C-labeled glucose (U-^13C-Glc) and treated with 1.6 mM of trisodium fructose-1,6-bisphosphate for 36 h, and then, intermediate products of intracellular glycolysis pathway, pentose phosphate pathway, “one-carbon unit” metabolic pathway, and nucleic acid de novo synthesis pathway were measured using liquid-mass spectrometry (LC-MS/MS).

U251 = experiment: Reactive oxygen species and mitochondrial membrane potential; type: cell-based, human; details: U251, 0.8 mM
[1] = system: fructose-1,6-bisphosphatase 1; experiment: Kidney protein level of fructose-1,6-bisphosphatase 1 after 14 days treatment (Western Blot); type: in vivo; details: SD rats, 14 days i.g.; FBP 500 mg/kg, metformin 150 mg/kg, sitagliptin 20 mg/kg; vs control group
Method: 180-200 g SD rats were divided into 4 groups: a saline control group, a trisodium fructose-1,6-bisphosphate hydrate group (500 mg/kg, i.g), a metformin group (150 mg/kg, i.g) or a sitagliptin group (20 mg/kg, i.g), and a trisodium fructose-1,6-bisphosphate and metformin or sitagliptin combination group, 5 rats in each group. All groups were intragastrically treated, metformin or sitagliptin was administrated 0.5 h before fructose-1,6-bisphosphate, and this was repeated in 14 consecutive days. At 3 hours after the last intragastric treatment with fructose-1,6-bisphosphate, rat blood was collected to detect the blood concentration of FBP, kidney tissue was taken and the protein level of fructose-1,6-bisphosphatase 1 was measured by Western Blot.

[2] = healthy volunteers, intravenous infusion 250 mg/kg, cited from earlier work
chronic epilepsy in rats = details: administered intragastrically; cited from earlier work
mouse tumor models = details: injected intraperitoneally; cited from earlier work
melanoma B16 cell = experiment: Cell viability, Sulforhodamine B (SRB) staining; details: Mus musculus, B16, 72 h
Method: Mouse melanoma B16 cells, which had been incubated for 24 hours, were incubated in a medium containing 0.8 mM of trisodium fructose-1,6-bisphosphate, a medium containing 20 μM of sitagliptin, and a medium containing 0.8 mM of trisodium fructose-1,6-bisphosphate and 20 μM of sitagliptin for 72 h. A control group (Con) was not treated with the agent. Cell viability was determined by Sulforhodamine B (SRB) staining analysis method.

O=C(COP(=O)(O)O)[C@@H](O)[C@H](O)[C@H](O)COP(=O)(O)O [FBP, fructose-1,6-bisphosphate]
ratio of ATP/ADP (CON = 1.00) (SHG-44; SHG-44, 0.8 mM or 1.6 mM, 36 h): 3.82 ± 0.68
ratio of NADH/NAD+ (CON = 1.00) (SHG-44; SHG-44, 0.8 mM or 1.6 mM, 36 h): 3.40 ± 0.15
ATP level (SHG-44; SHG-44, 36 h, vs control group): significantly increased
glycine (Gly) (M+2) produced by serine, relative to control group 1 (U87MG): 0.63±0.06
serine (Ser) (M+3) produced by U-13C-Glc, relative to control group 1 (U87MG): 1.57±0.04
Proportions of 13C-labeled ribose in free nucleosides and nucleotides, column F6P (U87MG; CON 13.03 ± 0.38): 2.79 ± 0.14
Proportions of 13C-labeled ribose in free nucleosides and nucleotides, column GAP (U87MG; CON 31.97 ± 1.11): 11.31 ± 1.75
Proportions of 13C-labeled ribose in free nucleosides and nucleotides, column FBP (U87MG; CON 41.00 ± 4.28): 34.99 ± 1.63
Proportions of 13C-labeled ribose in free nucleosides and nucleotides, column PEP (U87MG; CON 59.40 ± 1.11): 13.71 ± 0.54
Proportions of 13C-labeled ribose in free nucleosides and nucleotides, column Lac (U87MG; CON 61.60 ± 1.95): 30.70 ± 2.11
proportion of the 13C-labeled 5-phosphate ribose (R5P) (U87MG; control group 68.96±5.03%): 17.32±1.23%
Relative level of F6P (compared with the control group) (U87MG; U-13C-Glc): 2.06 ± 0.04
Relative level of FBP (compared with the control group) (U87MG; U-13C-Glc): 5.01 ± 0.34
Relative level of GAP (compared with the control group) (U87MG; U-13C-Glc): 4.27 ± 0.07
Relative level of Lac (compared with the control group) (U87MG; U-13C-Glc): 1.06 ± 0.02 ^N.S.
Relative level of PEP (compared with the control group) (U87MG; U-13C-Glc): 8.00 ± 0.32
Relative level of mitochondrial membrane potential (compared with the control group) (U251; 12 h): 1.08 ± 0.03
Relative level of reactive oxygen species (compared with the control group) (U251; 12 h): 1.20 ± 0.04
Relative level of mitochondrial membrane potential (compared with the control group) (U251; 24 h): 1.18 ± 0.01
Relative level of reactive oxygen species (compared with the control group) (U251; 24 h): 1.19 ± 0.03
Relative level of mitochondrial membrane potential (compared with the control group) (U251; 48 h): 0.6 ± 0.06
Relative level of reactive oxygen species (compared with the control group) (U251; 48 h): 1.42 ± 0.03
Relative level of mitochondrial membrane potential (compared with the control group) (U251; 72 h): 0.4 ± 0.07
Relative level of reactive oxygen species (compared with the control group) (U251; 72 h): 1.82 ± 0.03
protein level of fructose-1,6-bisphosphatase 1 in kidney tissue (Western Blot) [1]: significantly up-regulated
blood concentration ([2]; within 5 minutes): 770 µg/mL
half-life [2]: 10 to 15 min
long-term effective dose for chronic epilepsy (chronic epilepsy in rats): 100 to 200 mg/kg/day
effective dose for mouse tumor models (mouse tumor models): 400-450 mg/kg/time
viability at 800 µM (melanoma B16 cell; read-out: cell viability (Con = 100)): 77.7 ± 7.29%
cytotoxicity at 800 µM (melanoma B16 cell; read-out: cell viability inhibited): 22%
